Patent US20250092016A1, “COMPOUNDS AND COMPOSITIONS FOR THE TREATMENT OF CORONAVIRAL RELATED DISEASES” (priority 2021, published 2025)

The molecules below were run against SARS-CoV-2 main protease (M^pro) (Severe acute respiratory syndrome coronavirus 2, UniProt P0DTD1) (assay: Rapid-Fire MS Biochemical Assay measuring Mpro activity (5 nM Mpro)). Conditions: Rapid-Fire Assay IC50, Table 1B, Mpro inhibition, 5 μM substrate peptide, 120 min.

`CC1CC(N2CC(C#N)N(c3cncc4ccccc34)C2=O)C1` (single isomer, unassigned) [Compound 120c] was tested, and the IC50 was greater than 1000 nM.

Same assay, conditions: Table 1B, Mpro inhibition, 5 μM substrate peptide, 120 min, read-out: Rapid-Fire Assay IC50

`Cn1cc(N2C[C@H](C#N)N(c3cncc4ccccc34)C2=O)cn1` (single isomer, unassigned) [Compound 65a] and `Cc1cc(N2C[C@H](C#N)N(c3cncc4ccccc34)C2=O)ccn1` (single isomer, unassigned) [Compound 44a] fall in the same range of IC50: 20 to 200 nM for the first, 20 to 200 nM for the second.

`N#Cc1cccc(N2C[C@H](C#N)N(c3cncc4ccccc34)C2=O)c1` (single isomer, unassigned) [Compound 52a] and `N#C[C@H]1CN(c2cccc(F)c2)C(=O)N1c1cncc2ccccc12` (single isomer, unassigned) [Compound 76a] cannot be ordered by IC50: less than 20 nM for the first, less than 20 nM for the second.

`N#CC1CN(c2cccc(Cl)c2)C(=O)N1c1cncc2ccc(C(N)=O)cc12` (stereo not shown) [Compound 35, 4-(3-(3-chlorophenyl)-5-cyano-2-oxoimidazolidin-1-yl)isoquinoline-6-carboxamide] and `CS(=O)(=O)c1ccc2cncc(N3C(=O)N(c4cccc(Cl)c4)C[C@@H]3C#N)c2c1` (single isomer, unassigned) [Compound 37a] cannot be ordered by IC50: less than 20 nM for the first, less than 20 nM for the second.

`COc1nc(C(F)(F)F)ccc1N1C[C@@H](C#N)N(c2cncc3ccccc23)C1=O` (single isomer, unassigned) [Compound 95b] and `COc1cc(C(F)(F)F)ccc1N1C[C@@H](C#N)N(c2cncc3ccccc23)C1=O` (single isomer, unassigned) [Compound 12b] cannot be ordered by IC50: greater than 1000 nM for the first, greater than 1000 nM for the second.

Compared with `N#C[C@@H]1CN(c2ccc(OC(F)F)cc2F)C(=O)N1c1cncc2ccccc12` (single isomer, unassigned) [Compound 83b], `Cc1ccc(OC(F)F)cc1N1C[C@H](C#N)N(c2cncc3ccccc23)C1=O` (single isomer, unassigned) [Compound 101a] is lower in IC50: greater than 1000 nM for the first, less than 20 nM for the second.

Compared with `N#C[C@@H]1CN(C2CN(CC(F)(F)F)C2)C(=O)N1c1cncc2ccccc12` (single isomer, unassigned) [Compound 133b], `N#CC1CN(C2CN(CC(F)(F)F)C2)C(=O)N1c1cncc2ccccc12` (racemic) [Compound 133, 3-(isoquinolin-4-yl)-2-oxo-1-(1-(2,2,2-trifluoroethyl)azetidin-3-yl)imidazolidine-4-carbonitrile] is lower in IC50: 20 to 200 nM for the first, less than 20 nM for the second. The second is the more potent here.

First: N#C[C@@H]1CN(c2ccc(C(F)F)nc2)C(=O)N1c1cncc2ccccc12 (single isomer, unassigned) [Compound 75b]
Second: N#C[C@H]1CN(c2ccc(C(F)F)nc2)C(=O)N1c1cncc2ccccc12 (single isomer, unassigned) [Compound 75a]
The IC50 of the first is higher: greater than 1000 nM for the first, less than 20 nM for the second.

Going from `CC(C)c1ccc(N2C[C@@H](C#N)N(c3cncc4ccccc34)C2=O)cn1` (single isomer, unassigned) [Compound 94b] to `COc1ccc(N2C[C@H](C#N)N(c3cncc4ccccc34)C2=O)cn1` (single isomer, unassigned) [Compound 112a], the IC50 falls from greater than 1000 nM to less than 20 nM. The second is the more potent here.

Compared with `COc1ccc(C#N)cc1N1C[C@H](C#N)N(c2cncc3ccccc23)C1=O` (single isomer, unassigned) [Compound 15a], `COc1ccc(Cl)cc1N1C[C@@H](C#N)N(c2cncc3ccccc23)C1=O` (single isomer, unassigned) [Compound 115b] is higher in IC50: less than 20 nM for the first, greater than 1000 nM for the second. The first is the more potent here.

First: N#C[C@H]1CN(c2ncc(C(F)(F)F)cn2)C(=O)N1c1cncc2ccccc12 (single isomer, unassigned) [Compound 42a]
Second: N#C[C@@H]1CN(c2ncc(Cl)cn2)C(=O)N1c1cncc2ccccc12 (single isomer, unassigned) [Compound 16b]
The IC50 of the first is lower: less than 20 nM for the first, 200 to 1000 nM for the second. The first is the more potent here.

`N#C[C@@H]1CN(C2CN(C3CC3)C2)C(=O)N1c1cncc2ccccc12` (single isomer, unassigned) [Compound 136b] and `CN1CC(N2CC(C#N)N(c3cncc4ccccc34)C2=O)C1` (stereo not shown) [Compound 132, 3-(isoquinolin-4-yl)-1-(1-methylazetidin-3-yl)-2-oxoimidazolidine-4-carbonitrile] cannot be ordered by IC50: greater than 1000 nM for the first, greater than 1000 nM for the second.

First: CS(=O)(=O)c1cccc(N2C[C@H](C#N)N(c3cncc4ccccc34)C2=O)c1 (single isomer, unassigned) [Compound 48a]
Second: CC(C)(O)c1cccc(N2C[C@@H](C#N)N(c3cncc4ccccc34)C2=O)c1 (single isomer, unassigned) [Compound 69b]
The IC50 of the first is lower: less than 20 nM for the first, greater than 1000 nM for the second.

`N#CC1CN(c2ccc(F)c(F)c2)C(=O)N1c1cncc2ccccc12` (racemic) [Compound 72, 1-(3,4-difluorophenyl)-3-(isoquinolin-4-yl)-2-oxoimidazolidine-4-carbonitrile] and `N#C[C@H]1CN(c2cccc(C(F)F)c2)C(=O)N1c1cncc2ccccc12` (single isomer, unassigned) [Compound 22a] cannot be ordered by IC50: less than 20 nM for the first, less than 20 nM for the second.

First: Cc1ncccc1N1CC(C#N)N(c2cncc3ccccc23)C1=O (racemic) [Compound 74, 3-(isoquinolin-4-yl)-1-(2-methylpyridin-3-yl)-2-oxoimidazolidine-4-carbonitrile]
Second: Cc1ncccc1N1C[C@@H](C#N)N(c2cncc3ccccc23)C1=O (single isomer, unassigned) [Compound 74b]
The IC50 of the first is lower: 200 to 1000 nM for the first, greater than 1000 nM for the second. The first is the more potent here.

`CC(=O)N1CC(N2C[C@H](C#N)N(c3cncc4ccccc34)C2=O)C1` (single isomer, unassigned) [Compound 134a] and `CS(=O)(=O)N1CC(N2C[C@H](C#N)N(c3cncc4ccccc34)C2=O)C1` (single isomer, unassigned) [Compound 130a] fall in the same range of IC50: 200 to 1000 nM for the first, 200 to 1000 nM for the second.

Compared with `CC(C)(C)CN1C[C@@H](C#N)N(c2cncc3ccccc23)C1=O` (single isomer, unassigned) [Compound 140b], `CC1CC(N2CC(C#N)N(c3cncc4ccccc34)C2=O)C1` (single isomer, unassigned) [Compound 120a] is lower in IC50: greater than 1000 nM for the first, less than 20 nM for the second. The second is the more potent here.

`COc1ccc(C(F)(F)F)cc1N1C[C@H](C#N)N(c2cncc3ccccc23)C1=O` (single isomer, unassigned) [Compound 17a] and `COc1ccc(Cl)cc1N1C[C@H](C#N)N(c2cncc3ccccc23)C1=O` (single isomer, unassigned) [Compound 115a] cannot be ordered by IC50: less than 20 nM for the first, less than 20 nM for the second.

Compared with `N#C[C@H]1CN(c2nc(Cl)c[nH]2)C(=O)N1c1cncc2ccccc12` (single isomer, unassigned) [Compound 119a], `Cc1c[nH]c(N2C[C@@H](C#N)N(c3cncc4ccccc34)C2=O)n1` (single isomer, unassigned) [Compound 118b] is higher in IC50: 20 to 200 nM for the first, greater than 1000 nM for the second. The first is the more potent here.

First: Cc1ccc(F)cc1N1C[C@@H](C#N)N(c2cncc3ccccc23)C1=O (single isomer, unassigned) [Compound 21b]
Second: N#C[C@H]1CN(c2cccc(F)n2)C(=O)N1c1cncc2ccccc12 (single isomer, unassigned) [Compound 61a]
The IC50 of the first is higher: greater than 1000 nM for the first, 20 to 200 nM for the second. The second is the more potent here.

First: CC(C)(O)c1ccc2cncc(N3C(=O)N(c4cccc(Cl)c4)CC3C#N)c2c1 (stereo not shown) [Compound 34, 1-(3-chlorophenyl)-3-(6-(2-hydroxypropan-2-yl)isoquinolin-4-yl)-2-oxoimidazolidine-4-carbonitrile]
Second: CC(C)(O)c1ccc(N2C[C@H](C#N)N(c3cncc4ccccc34)C2=O)cc1 (single isomer, unassigned) [Compound 84a]
The IC50 of the first is lower: less than 20 nM for the first, 20 to 200 nM for the second.

`N#Cc1cc(C(F)(F)F)ncc1N1C[C@@H](C#N)N(c2cncc3ccccc23)C1=O` (single isomer, unassigned) [Compound 18b] and `COc1cnc(C(F)(F)F)cc1N1C[C@@H](C#N)N(c2cncc3ccccc23)C1=O` (single isomer, unassigned) [Compound 14b] cannot be ordered by IC50: greater than 1000 nM for the first, greater than 1000 nM for the second.

First: N#C[C@@H]1CN(c2ccc(Cl)cn2)C(=O)N1c1cncc2ccccc12 (single isomer, unassigned) [Compound 41b]
Second: N#Cc1ccc(Cl)cc1N1C[C@H](C#N)N(c2cncc3ccccc23)C1=O (single isomer, unassigned) [Compound 20a]
The IC50 of the first is higher: 200 to 1000 nM for the first, less than 20 nM for the second. The second is the more potent here.

Compared with `N#C[C@H]1CN([C@H]2CCC(F)(F)C2)C(=O)N1c1cncc2ccccc12` (single isomer, unassigned) [Compound 141d, (R)-1-((S)-3,3-difluorocyclopentyl)-3-(isoquinolin-4-yl)-2-oxoimidazolidine-4-carbonitrile or (R)-1-((R)-3,3-difluorocyclopentyl)-3-(isoquinolin-4-yl)-2-oxoimidazolidine-4-carbonitrile], `N#C[C@H]1CN([C@H]2C[C@H](C(F)(F)F)C2)C(=O)N1c1cncc2ccccc12` [Compound 45a, (R)-3-(isoquinolin-4-yl)-2-oxo-1-((1 r,3R)-3-(trifluoromethyl)cyclobutyl)imidazolidine-4-carbonitrile] is lower in IC50: 20 to 200 nM for the first, less than 20 nM for the second. The second is the more potent here.

Compared with `N#C[C@H]1CN([C@@H]2CCN(CCC(F)(F)F)C2)C(=O)N1c1cncc2ccccc12` (single isomer, unassigned) [Compound 26a], `N#C[C@@H]1CN(C2CN(S(=O)(=O)C(F)(F)F)C2)C(=O)N1c1cncc2ccccc12` (single isomer, unassigned) [Compound 129b] is higher in IC50: 200 to 1000 nM for the first, greater than 1000 nM for the second.

`N#CC1CN(c2cccc(C(F)(F)F)c2)C(=O)N1c1cncc2ccccc12` (racemic) [Compound 106, 3-(isoquinolin-4-yl)-2-oxo-1-(3-(trifluoromethyl)phenyl)imidazolidine-4-carbonitrile] and `N#C[C@@H]1CN(c2cccc(C(F)(F)F)n2)C(=O)N1c1cncc2ccccc12` (single isomer, unassigned) [Compound 51b] cannot be ordered by IC50: greater than 1000 nM for the first, greater than 1000 nM for the second.

First: Cc1ccnc(N2C[C@H](C#N)N(c3cncc4ccccc34)C2=O)n1 (single isomer, unassigned) [Compound 53a]
Second: N#C[C@@H]1CN(c2ccc(C(F)(F)F)nn2)C(=O)N1c1cncc2ccccc12 (single isomer, unassigned) [Compound 81b]
The IC50 of the first is lower: 200 to 1000 nM for the first, greater than 1000 nM for the second.

First: N#C[C@@H]1CN(c2ccc(OC(F)F)cc2)C(=O)N1c1cncc2ccccc12 (single isomer, unassigned) [Compound 71b]
Second: N#C[C@H]1CN(c2ncc(C(F)(F)F)[nH]2)C(=O)N1c1cncc2ccccc12 (single isomer, unassigned) [Compound 68a]
The IC50 of the first is higher: greater than 1000 nM for the first, 20 to 200 nM for the second.
